Reference: patent US20080194574A1, “Pyrazine Derivatives As Effective Compounds Against Infectious Diseases” (AXXIMA PHARMACEUTICALS AG, priority 2003, published 2008)

What follows are compounds tested against T1, viral kinase pUL-97 (Human cytomegalovirus, UniProt P16788) (assay: UL97 kinase assay on Immobilon plate). Conditions: inhibition of UL 97 kinase activity; class by IC50 / % inhibition at 10 μM or 100 μM; read-out: Activity Class [A, B, C].
T1 construct: The pUL-97 gene was cloned into a baculovirus vector; GST (glutathione S-transferase) (N); made in house; host or cells: Sf9 insect cells, baculovirus
T1 sequence (P16788 whole entry): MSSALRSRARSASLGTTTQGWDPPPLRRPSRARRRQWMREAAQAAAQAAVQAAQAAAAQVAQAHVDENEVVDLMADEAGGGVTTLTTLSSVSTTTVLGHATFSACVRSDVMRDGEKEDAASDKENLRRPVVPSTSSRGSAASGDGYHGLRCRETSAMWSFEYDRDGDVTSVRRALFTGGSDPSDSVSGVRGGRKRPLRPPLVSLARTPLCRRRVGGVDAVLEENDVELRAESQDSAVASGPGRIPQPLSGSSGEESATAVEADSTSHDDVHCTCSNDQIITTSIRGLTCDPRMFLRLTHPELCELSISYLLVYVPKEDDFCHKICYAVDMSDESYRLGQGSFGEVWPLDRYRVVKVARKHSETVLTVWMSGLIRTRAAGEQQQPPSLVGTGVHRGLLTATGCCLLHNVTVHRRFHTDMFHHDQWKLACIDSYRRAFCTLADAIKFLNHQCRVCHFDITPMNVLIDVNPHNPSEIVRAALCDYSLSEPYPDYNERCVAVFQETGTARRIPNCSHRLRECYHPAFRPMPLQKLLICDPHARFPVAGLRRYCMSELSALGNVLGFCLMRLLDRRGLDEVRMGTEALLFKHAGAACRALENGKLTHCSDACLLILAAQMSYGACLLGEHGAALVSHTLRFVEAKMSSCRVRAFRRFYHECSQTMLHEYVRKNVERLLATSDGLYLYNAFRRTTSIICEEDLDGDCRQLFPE
Assay type: biochemical
Outline: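 Compound was titrated into a radiometric reaction of Sf9-expressed GST-UL97 kinase, incubated 1 h at 30 °C in Tris-HCl pH 7.5/MnCl2/DTT buffer before EDTA stop. MBP substrate and ATP (3 μM in the added assay buffer) were supplied with γ-[33P]ATP. Labelled product bound to Immobilon filter was washed and counted by scintillation.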
`CSc1ccc(-c2cncc(N3CCN(c4ccc(Cl)c(Cl)c4)CC3)n2)cc1` [compound 372, 4-(3,4-Dichloro-phenyl)-6′-(4-methylsulfanyl-phenyl)-3,4,5,6-tetrahydro-2H-[1,2′]bipyrazinyl] was tested, and the IC50 was 10 to 100 µM. `Cc1ccc(-c2cncc(N3CCN(c4cccc(Cl)c4)CC3)n2)cc1` [compound 237, 4-(3-Chloro-phenyl)-6′-p-tolyl-3,4,5,6-tetrahydro-2H-[1,2′]bipyrazinyl] was tested, and the IC50 was 10 to 100 µM. `c1ccc(C2CCN(c3cncc(-c4ccoc4)n3)CC2)cc1` [compound 277, 2-Furan-3-yl-6-(4-phenyl-piperidin-1-yl)-pyrazine] showed an IC50 of 10 to 100 µM. Work on `c1ccc2c(-c3cncc(N4CCN(c5ccncc5)CC4)n3)csc2c1` [compound 222, 6′-Benzo[b]thiophen-3-yl-4-pyridin-4-yl-3,4,5,6-tetrahydro-2H-[1,2′]bipyrazinyl] yielded an IC50 of 1 to 10 µM. For `FC(F)(F)c1ccc(-c2cncc(N3CCN(c4cnccn4)CC3)n2)cc1` [compound 345, 6-(4-Trifluoromethyl-phenyl)-2′,3′,5′,6′-tetrahydro-[2,1′;4′,2″]terpyrazine], the IC50 was 1 to 10 µM. Compound `COc1cccc(N2CCN(c3cncc(-c4ccc(SC)cc4)n3)CC2)c1` [compound 369, 4-(3-Methoxy-phenyl)-6′-(4-methylsulfanyl-phenyl)-3,4,5,6-tetrahydro-2H-[1,2′]bipyrazinyl] has an IC50 of 1 to 10 µM. For `OCc1ccc(-c2cncc(N3CCN(c4ccccn4)CC3)n2)cc1` [compound 351, [4-(4-Pyridin-2-yl-3,4,5,6-tetrahydro-2H-[1,2′]bipyrazinyl-6′-yl)-phenyl]-methanol], the IC50 was 1 to 10 µM. With `Brc1ccc(-c2cncc(N3CCN(c4cnccn4)CC3)n2)cc1` [compound 313, 6-(4-Bromo-phenyl)-2′,3′,5′,6′-tetrahydro-[2,1′;4′,2″]terpyrazine] the IC50 was < 1 µM. In the case of `Cc1cccc(N2CCN(c3cncc(-c4cc5ccccc5s4)n3)CC2C)c1` (stereo not shown) [compound 300, 6′-Benzo[b]thiophen-2-yl-3-methyl-4-m-tolyl-3,4,5,6-tetrahydro-2H-[1,2′]bipyrazinyl], the IC50 is reported as 10 to 100 µM. `Clc1ccc(N2CCN(c3cncc(-c4csc5ccccc45)n3)CC2)cc1` [compound 326, 6′-Benzo[b]thiophen-3-yl-4-(4-chloro-phenyl)-3,4,5,6-tetrahydro-2H-[1,2′]bipyrazinyl] showed an IC50 of 1 to 10 µM. `CN(C)c1ccc(-c2cncc(N3CCN(c4ccc(F)cc4F)CC3)n2)cc1` [compound 208] showed an IC50 of 1 to 10 µM. In the case of `Clc1ccc(N2CCN(c3cncc(-c4cccc5ccccc45)n3)CC2)cc1Cl` [compound 287, 4-(3,4-Dichloro-phenyl)-6′-naphthalen-1-yl-3,4,5,6-tetrahydro-2H-[1,2′]bipyrazinyl], the IC50 is reported as 10 to 100 µM. `CCOc1ccc(-c2cncc(N3CCN(c4ccc(F)cc4F)CC3)n2)cc1` [compound 203, 4-(2,4-Difluoro-phenyl)-6′-(4-ethoxy-phenyl)-3,4,5,6-tetrahydro-2H-[1,2′]bipyrazinyl] showed an IC50 of 10 to 100 µM. `CC(=O)c1ccccc1-c1cncc(N2CCN(c3cccc(Cl)c3)CC2)n1` [compound 236, 1-{2-[4-(3-Chloro-phenyl)-3,4,5,6-tetrahydro-2H-[1,2′]bipyrazinyl-6′-yl]-phenyl}-ethanone] was tested, and the IC50 was 10 to 100 µM. `CSc1ccc(-c2cncc(N3CCN(c4cccc(C)c4)C(C)C3)n2)cc1` (stereo not shown) [compound 301, 3-Methyl-6′-(4-methylsulfanyl-phenyl)-4-m-tolyl-3,4,5,6-tetrahydro-2H-[1,2′]bipyrazinyl] was tested, and the IC50 was 10 to 100 µM. Work on `CSc1ccc(-c2cncc(N3CCN(c4ccc(C)c(C)c4)CC3)n2)cc1` [compound 359, 4-(3,4-Dimethyl-phenyl)-6′-(4-methylsulfanyl-phenyl)-3,4,5,6-tetrahydro-2H-[1,2′]bipyrazinyl] yielded an IC50 of 1 to 10 µM. With `CC(=O)c1ccccc1-c1cncc(N2CCN(c3ccncc3)CC2)n1` [compound 218, 1-[2-(4-Pyridin-4-yl-3,4,5,6-tetrahydro-2H-[1,2′]bipyrazinyl-6′-yl)-phenyl]-ethanone] the IC50 was 10 to 100 µM. With `COc1cccc(N2CCN(c3cncc(-c4cc5ccccc5o4)n3)CC2)c1` [compound 285, 6′-Benzofuran-2-yl-4-(3-methoxy-phenyl)-3,4,5,6-tetrahydro-2H-[1,2′]bipyrazinyl] the IC50 was 1 to 10 µM. `c1ccc(C2CCN(c3cncc(-c4ccsc4)n3)CC2)cc1` [compound 336, 2-(4-Phenyl-piperidin-1-yl)-6-thiophen-3-yl-pyrazine] was tested, and the IC50 was 1 to 10 µM. For `N#Cc1ccc(-c2cncc(N3CCN(c4ccccn4)CC3)n2)cc1` [compound 303, 4-(4-Pyridin-2-yl-3,4,5,6-tetrahydro-2H-[1,2′]bipyrazinyl-6′-yl)-benzonitrile], the IC50 was 1 to 10 µM. `COc1cccc(N2CCN(c3cncc(-c4ccccc4)n3)CC2)c1` [compound 365, 4-(3-Methoxy-phenyl)-6′-phenyl-3,4,5,6-tetrahydro-2H-[1,2′]bipyrazinyl] was tested, and the IC50 was 10 to 100 µM. Work on `Clc1cccc(N2CCN(c3cncc(-c4csc5ccccc45)n3)CC2)c1` [compound 239, 6′-Benzo[b]thiophen-3-yl-4-(3-chloro-phenyl)-3,4,5,6-tetrahydro-2H-[1,2′]bipyrazinyl] yielded an IC50 of 10 to 100 µM. `COc1ccc(Cl)cc1-c1cncc(N2CCN(c3ccncc3)CC2)n1` [compound 259, 6′-(5-Chloro-2-methoxy-phenyl)-4-pyridin-4-yl-3,4,5,6-tetrahydro-2H-[1,2′]bipyrazinyl] gave an IC50 of 10 to 100 µM.

Same assay, conditions: inhibition of UL 97 kinase activity; class by IC50 / % inhibition at 10 or 100 μM; read-out: Activity Class [A, B, C]
`Fc1cc(-c2cncc(N3CCN(c4ccccc4)CC3)n2)ccc1-c1ccccc1` [compound 96, 6′-(2-Fluoro-biphenyl-4-yl)-4-phenyl-3,4,5,6-tetrahydro-2H-[1,2′]bipyrazinyl] was tested, and the IC50 was 10 to 100 µM. With `CSc1ccc(-c2cncc(N3CCN(c4ccccc4)CC3)n2)cc1` [compound 120, 6′-(4-Methylsulfanyl-phenyl)-4-phenyl-3,4,5,6-tetrahydro-2H-[1,2′]bipyrazinyl] the IC50 was 1 to 10 µM. In the case of `COc1ccccc1N1CCN(c2cncc(-c3ccc(SC)cc3)n2)CC1` [compound 108, 4-(2-Methoxy-phenyl)-6′-(4-methylsulfanyl-phenyl)-3,4,5,6-tetrahydro-2H-[1,2′]bipyrazinyl], the IC50 is reported as 1 to 10 µM. `Clc1cccc(N2CCN(c3cncc(-c4ccoc4)n3)CC2)c1` [compound 84, 4-(3-Chloro-phenyl)-6′-furan-3-yl-3,4,5,6-tetrahydro-2H-[1,2′]bipyrazinyl] showed an IC50 of 1 to 10 µM. Work on `NC(=O)c1cccc(-c2cncc(N3CCN(c4ccncc4)CC3)n2)c1` [Comp. 71, 3-(4-Pyridin-4-yl-3,4,5,6-tetrahydro-2H-[1,2′]bipyrazinyl-6′-yl)-benzamide] yielded an IC50 of 1 to 10 µM. Work on “6′-(4-Methylsulfanyl-phenyl)-4-pyridin-4-yl-3,4,5,6-tetrahydro-2H-[1,2′]bipyrazinyl [compound 66]” yielded an IC50 of 1 to 10 µM. `CCOc1ccc(-c2cncc(N3CCN(c4ccccc4OC)CC3)n2)cc1` [compound 92, 6′-(4-Ethoxy-phenyl)-4-(2-methoxy-phenyl)-3,4,5,6-tetrahydro-2H-[1,2′]bipyrazinyl] showed an IC50 of 10 to 100 µM. For `COc1ccc(N2CCN(c3cncc(-c4cccs4)n3)CC2)cc1OC` [compound 44, 4-(3,4-Dimethoxy-phenyl)-6′-thiophen-2-yl-3,4,5,6-tetrahydro-2H-[1,2′]bipyrazinyl], the IC50 was 1 to 10 µM. With `NC(=O)c1ccc(-c2cncc(N3CCN(c4ccccn4)CC3)n2)cc1` [Comp. 15, 4-(4-Pyridin-2-yl-3,4,5,6-tetrahydro-2H-[1,2′]bipyrazinyl-6′-yl)-benzamide] the IC50 was < 1 µM. Work on `COc1cccc(-c2cncc(N3CCN(c4ccccc4F)CC3)n2)c1` [compound 113, 4-(2-Fluoro-phenyl)-6′-(3-methoxy-phenyl)-3,4,5,6-tetrahydro-2H-[1,2′]bipyrazinyl] yielded an IC50 of 1 to 10 µM. Work on `CN(C)c1cccc(-c2cncc(N3CCN(c4ccncc4)CC3)n2)c1` [compound 16, Dimethyl-[3-(4-pyridin-4-yl-3,4,5,6-tetrahydro-2H-[1,2′]bipyrazinyl-6′-yl)-phenyl]-amine] yielded an IC50 of 10 to 100 µM. Compound `CC(=O)c1ccc(N2CCN(c3cncc(-c4ccc(F)c(Cl)c4)n3)CC2)cc1` [compound 151] has an IC50 of 10 to 100 µM. `COc1cccc(-c2cncc(N3CCN(c4ccccc4)CC3)n2)c1` [compound 110, 6′-(3-Methoxy-phenyl)-4-phenyl-3,4,5,6-tetrahydro-2H-[1,2′]bipyrazinyl] showed an IC50 of 1 to 10 µM. Compound `Fc1ccc(-c2cncc(N3CCN(c4cccc(Cl)c4)CC3)n2)cc1` [compound 99, 4-(3-Chloro-phenyl)-6′-(4-fluoro-phenyl)-3,4,5,6-tetrahydro-2H-[1,2′]bipyrazinyl] has an IC50 of 1 to 10 µM. `Cc1ccc(N2CCN(c3cncc(-c4ccccc4)n3)CC2)cc1` [compound 135, 6′-Phenyl-4-p-tolyl-3,4,5,6-tetrahydro-2H-[1,2′]bipyrazinyl] showed an IC50 of 10 to 100 µM. For `Fc1cccc(-c2cncc(N3CCN(c4ccccn4)CC3)n2)c1` [compound 56, 6′-(3-Fluoro-phenyl)-4-pyridin-2-yl-3,4,5,6-tetrahydro-2H-[1,2′]bipyrazinyl], the IC50 was 10 to 100 µM. Work on `OCC1CCCN1c1cncc(-c2cc3ccccc3o2)n1` (stereo not shown) [compound 24, [1-(6-Benzofuran-2-yl-pyrazin-2-yl)-pyrrolidin-2-yl]-methanol] yielded an IC50 of 1 to 10 µM. `CC(=O)c1ccccc1-c1cncc(N2CCN(c3ccc(F)cc3F)CC2)n1` [compound 141, 1-{2-[4-(2,4-Difluoro-phenyl)-3,4,5,6-tetrahydro-2H-[1,2′]bipyrazinyl-6′-yl]-phenyl}-ethanone] showed an IC50 of 1 to 10 µM. With `CSc1ccc(-c2cncc(N3CCN(c4ccc(C(C)=O)cc4)CC3)n2)cc1` [compound 159] the IC50 was < 1 µM. `COc1cccc(-c2cncc(N3CCN(c4ccc(OC)c(OC)c4)CC3)n2)c1` [compound 134, 4-(3,4-Dimethoxy-phenyl)-6′-(3-methoxy-phenyl)-3,4,5,6-tetrahydro-2H-[1,2′]bipyrazinyl] was tested, and the IC50 was 1 to 10 µM.
